Experimental findings from US20080234202A1, “Non-natural amino acids and neurotensin analogues” (priority 2004, published 2008) are described below.

For one data set, the target named is NTR-1 (Homo sapiens, UniProt P30989). The experiment in a line: Competitive NTR-1 binding versus radiolabeled NT[8-13].
The next data set has as its target NTR-2 (Homo sapiens, UniProt O95665). The experiment in a line: Competitive NTR-2 binding versus radiolabeled NT[8-13].
The next data set in a line: Tail flick assay. Particulars: ABS212 10 mg/kg, Morphine 5 mg/kg. In general terms: Thermal pain tests record how soon the animal reacts.
Another data set is described as follows: Formalin assay. Particulars: morphine 5 mg/kg, approximately equimolar.
Another data set is described as follows: in vitro. The conditions noted are these: plasma.
For data set [1] the following is noted: rat, in vivo.
Experimental: Cataleptic Analysis. In laboratory tests, catalepsy is characterized by the inability of an animal to correct its position after placement in an unnatural posture. […] To circumvent these potential confounding factors, tests are performed on an animal only once in a quiet, controlled environment.
Catalepsy Assessment. […] Rats were given an IP injection of peptide (5 mg/Kg), saline, or haloperidol (1 mg/kg). After 3 hours, catalepsy was measured using the horizontal bar test. Briefly, the front paws were placed directly on a horizontal bar 5 mm in diameter placed 7.5 cm above the cage floor. The rat was held in this position for 3 sec and then released. The time from release until the paws return to the cage floor was measured and recorded. A cut-off time of 30 sec was observed; this indicated a fully cataleptic animal as cataleptic animals are frozen to the bar. […] Measures were repeated every 30 min for 4 hr. Data are means±SEM (p<0.01).
After 2 h, catalepsy was measured using the horizontal bar test. Data are means±SEM (p<0.01).
A short description of data set [2]: d-Amphetamine induced hyperlocomotion and spontaneous locomotor activity. The class given is in vivo, rat. Particulars: Table 11.
Text: This model operates on the assumption that the direct stimulation of DA receptors within the mesolimbic DA system is responsible for the locomotor response.
Sound- and light-attenuated locomotor cages are used to measure the ability of potential candidates to decrease d-amphetamine-induced hyperactivity.
d-Amphetamine induced hyperlocomotion. Experimentally I male Sprague-Dawley rats were housed as described above. Rats were handled for three days prior to testing to minimize experimenter induced hyperlocomotion on test day. For experiments, sound- and light-attenuated automated photocell beam activity chambers (AccuScan Instruments, Inc., Columbus, Ohio) were used to measure locomotion. Cages were connected to a VersaMax Analyzer (AccuScan) in conjunction with an IBM computer using VersaMax 1.80-0146 software (AccuScan) to record vertical and horizontal activity. Total activity values recorded were the sum of vertical and horizontal activity.
Each animal's activity was measured by how many times per minute the animal “trips” a photobeam in a computer-controlled photocell activity chamber (San Diego Instruments, San Diego, Calif.). […] Doses were assigned so that each was assessed in 12 chambers that were distributed over the apparatus, which controls for variations in lighting, etc. of the different chambers. […]

Like-named read-outs stand apart in the source and are kept apart here. Where a SMILES comes first, the peptide text is derived from it. [ ]: non-standard residue; d: D form. The star is where a group is joined. X4 = [N-]=[N+]=N[C@@H](CCCCCN)C(=O)*; Tle = CC(C)(C)[C@H](N)C(=O)O

NTR-1, sequence (P30989 whole entry, species assumed): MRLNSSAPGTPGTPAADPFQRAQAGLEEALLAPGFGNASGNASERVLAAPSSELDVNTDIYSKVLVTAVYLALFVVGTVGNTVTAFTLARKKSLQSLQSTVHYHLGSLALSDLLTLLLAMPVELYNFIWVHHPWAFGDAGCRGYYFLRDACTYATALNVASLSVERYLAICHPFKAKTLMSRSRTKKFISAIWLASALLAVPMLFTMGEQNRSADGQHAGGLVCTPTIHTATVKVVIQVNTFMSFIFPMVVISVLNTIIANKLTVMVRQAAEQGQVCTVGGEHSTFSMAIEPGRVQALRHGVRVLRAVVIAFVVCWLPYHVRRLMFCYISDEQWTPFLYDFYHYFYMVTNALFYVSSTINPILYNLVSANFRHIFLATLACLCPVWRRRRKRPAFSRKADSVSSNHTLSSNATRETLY
NTR-2, sequence (O95665 whole entry, species assumed): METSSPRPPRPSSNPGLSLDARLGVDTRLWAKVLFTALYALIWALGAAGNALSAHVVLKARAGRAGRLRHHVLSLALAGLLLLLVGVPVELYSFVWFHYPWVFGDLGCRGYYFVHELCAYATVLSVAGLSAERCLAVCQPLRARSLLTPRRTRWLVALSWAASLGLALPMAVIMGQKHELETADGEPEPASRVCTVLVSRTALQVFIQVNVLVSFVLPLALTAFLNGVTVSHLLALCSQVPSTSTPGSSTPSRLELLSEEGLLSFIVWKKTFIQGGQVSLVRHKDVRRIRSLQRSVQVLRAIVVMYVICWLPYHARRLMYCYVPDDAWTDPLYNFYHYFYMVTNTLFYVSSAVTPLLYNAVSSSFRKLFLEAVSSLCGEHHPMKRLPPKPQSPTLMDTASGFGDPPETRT

`CC(C)C[C@H](NC(=O)[C@@H](NC(=O)[C@H](Cc1ccc(O)cc1)NC(=O)[C@@H]1CCCN1C(=O)[C@H](CCCNC(=N)N)NC(=O)[C@H](CCCCCN)N=[N+]=[N-])C(C)(C)C)C(=O)O` [ABS13, N3-L-homolysine-Arg-Pro-Tyr-tertLeu-Leu-COOH] (X4-RPY[Tle]L-OH): the figures for the EC50 at NTR-1 and on NTR-2 were 5.7 ± 0.37 nM and 11.1 ± 0.1 nM, respectively.
As to `CC[C@H](C)[C@H](NC(=O)[C@H](Cc1ccc(O)cc1)NC(=O)[C@@H]1CCCN1C(=O)[C@H](CCCNC(=N)N)NC(=O)[C@H](CCCNC(=N)N)N=[N+]=[N-])C(=O)N[C@@H](CC(C)C)C(=O)O` [ABS15, X-Arg-Pro-Tyr-isoleu-Leu], the EC50 at NTR-1 worked out at 0.4 ± 0.1 nM; at NTR-2, 0.9 ± 0.2 nM. For the same compound, on NTR-2 (Table 12), the NTR-1/NTR-2 selectivity was 2.5.
Turning to `CN1CC[C@]23c4c5ccc(O)c4O[C@H]2[C@@H](O)C=C[C@H]3[C@H]1C5` [Morphine, reference compound], in “Tail flick assay”, the “MPE (0 min)” value is reported as 0.03 +/− 0.05, the “MPE (30 min)” value is given as 63.7 +/− 41.9 and the “MPE (60 min)” value is reported as 67.5 +/− 25.8. Also, the “duration of activity of morphine” value in “Formalin assay” was “loses activity after 30 minutes”.
On to `CC[C@H](C)[C@H](NC(=O)[C@H](Cc1ccc(O)cc1)NC(=O)[C@@H]1CCCN1C(=O)[C@H](CCCNC(=N)N)NC(=O)[C@@H](N)CCCNC(=N)N)C(=O)N[C@@H](CC(C)C)C(=O)O` [NT(8-13), NH2-Arg-Arg-Pro-Tyr-Ile-Leu-COOH], for which, in “in vitro”, the half-life (as a rule, the time needed for the level to fall by half in the phase considered) was 5 min. Besides, in data set [1], the Catalepsy entry is “No”. Also, in data set [2], the “Hyperlocomotion Inhibition (active routes)” value is “CNS administration” and the “Inhibits locomotor activity (active routes)” value was “CNS administration”.
As for X-Arg-Pro-Tyr-isoleu-Leu [ABS19], the EC50 on NTR-1 (competitive binding, Table 12, read-out: NTR-1) amounted to 1.2 ± 0.7 nM.
